For the series, the target named is ATP-dependent translocase ABCB1 (Homo sapiens, UniProt P08183). The series is described as follows: TP_TRANSPORTER: transepithelial transport of cyclosporin A in Caco-2 cells. The class given is functional, cell-based. (In general: Caco-2 cells form a polarised layer with tight junctions and transporters.)
Sequence of ATP-dependent translocase ABCB1 (P08183 whole entry): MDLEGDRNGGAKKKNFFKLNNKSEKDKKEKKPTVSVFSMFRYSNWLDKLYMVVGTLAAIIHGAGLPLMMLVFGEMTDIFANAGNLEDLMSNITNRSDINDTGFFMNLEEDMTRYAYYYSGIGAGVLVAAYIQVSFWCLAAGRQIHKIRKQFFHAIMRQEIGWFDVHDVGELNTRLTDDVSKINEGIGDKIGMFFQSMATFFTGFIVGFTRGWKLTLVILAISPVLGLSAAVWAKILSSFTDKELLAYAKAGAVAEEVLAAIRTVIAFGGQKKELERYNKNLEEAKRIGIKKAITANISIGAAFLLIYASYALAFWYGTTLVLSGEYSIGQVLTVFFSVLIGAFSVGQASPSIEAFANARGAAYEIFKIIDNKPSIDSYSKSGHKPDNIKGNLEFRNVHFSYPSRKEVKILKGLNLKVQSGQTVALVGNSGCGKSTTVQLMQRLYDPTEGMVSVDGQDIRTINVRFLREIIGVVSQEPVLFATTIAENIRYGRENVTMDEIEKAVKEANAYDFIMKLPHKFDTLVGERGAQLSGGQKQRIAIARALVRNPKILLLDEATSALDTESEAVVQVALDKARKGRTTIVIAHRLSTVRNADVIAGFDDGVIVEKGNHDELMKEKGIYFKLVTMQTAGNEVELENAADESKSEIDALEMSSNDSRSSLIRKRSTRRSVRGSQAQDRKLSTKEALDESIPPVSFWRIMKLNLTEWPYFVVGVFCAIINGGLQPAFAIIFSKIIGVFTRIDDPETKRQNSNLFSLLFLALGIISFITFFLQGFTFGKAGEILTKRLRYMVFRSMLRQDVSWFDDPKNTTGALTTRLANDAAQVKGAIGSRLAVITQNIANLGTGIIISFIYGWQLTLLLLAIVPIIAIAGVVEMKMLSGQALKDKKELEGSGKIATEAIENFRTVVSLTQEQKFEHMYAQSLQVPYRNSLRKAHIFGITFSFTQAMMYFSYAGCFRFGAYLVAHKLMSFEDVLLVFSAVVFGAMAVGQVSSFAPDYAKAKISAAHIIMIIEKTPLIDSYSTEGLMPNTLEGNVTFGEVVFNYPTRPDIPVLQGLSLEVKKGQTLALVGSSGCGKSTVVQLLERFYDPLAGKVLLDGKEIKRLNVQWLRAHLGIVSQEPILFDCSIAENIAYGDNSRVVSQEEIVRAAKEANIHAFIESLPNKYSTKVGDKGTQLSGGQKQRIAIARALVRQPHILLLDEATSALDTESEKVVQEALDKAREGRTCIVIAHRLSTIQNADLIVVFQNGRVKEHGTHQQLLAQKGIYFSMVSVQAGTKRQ

Turning to CREMOPHOR EL, the Activity entry was “inhibitor [+]”. Take PLURONIC L81: the Activity entry is “inhibitor [+]”.

The values are drawn from ChEMBL document CHEMBL2074215, “The effects of pluronics block copolymers and Cremophor EL on intestinal lipoprotein processing and the potential link with P-glycoprotein in Caco-2 cells” (Pharm Res, 2003).
